Reference: patent publication US6897049B1, “Proteins producing an altered immunogenic response and methods of making and using the same” (Genencor International, Inc., priority 1998, dated 2005)

Key:
naïve human CD4+ T-cells = test: T-cell proliferation assay with differentiated dendritic cells and naïve human CD4+ T-cells (tritium incorporation); type: cell-based; details: for T-cell epitope discovered: naïve donors, positive if response at least 3 times baseline
Procedure: Fresh human peripheral blood cells were collected from “naïve” humans, i.e., persons not known to be exposed to or sensitized to Bacillus lentus protease, for determination of antigenic epitopes in protease from Bacillus lentus and human subtilisin. Naïve humans is intended to mean that the individual is not known to have been exposed to or developed a reaction to protease in the past. Peripheral mononuclear blood cells (stored at room temperature, no older than 24 hours) were prepared for use as follows: Approximately 30 mls of a solution of buffy coat preparation from one unit of whole blood was brought to 50 ml with Dulbecco's phosphate buffered solution (DPBS) and split into two tubes. The samples were underlaid with 12.5 ml of room temperature lymphoprep density separation media (Nycomed density 1.077 g/ml). The tubes were centrifuged for thirty minutes at 600 G. The interface of the two phases was collected, pooled and washed in DPBS. The cell density of the resultant solution was measured by hemocytometer. Viability was measured by trypan blue exclusion.
From the resulting solution, a differentiated dendritic cell culture was prepared from the peripheral blood mononuclear cell sample having a density of 10^8 cells per 75 ml culture flask in a solution as follows: • (1) 50 ml of serum free AIM V media (Gibco) was supplemented with a 1:100 dilution beta-mercaptoethanol (Gibco). The flasks were laid flat for two hours at 37° C. in 5% CO2 to allow adherence of monocytes to the flask wall. • (2) Differentiation of the monocyte cells to dendritic cells was as follows: nonadherent cells were removed and the resultant adherent cells (monocytes) combined with 30 ml of AIM V, 800 units/ml of GM-CSF (Endogen) and 500 units/ml of IL-4 (Endogen); the resulting mixture was cultured for 5 days under conditions at 37° C. in 5% CO2. […] Adherent and non-adherent cells were then centrifuged at 600 G for 5 minutes, washed in DPBS and counted. • (4) The prepared dendritic cells were placed into a 96 well round bottom array at 2×10^4/well in 100 microliter total volume of AIM V media.
CD4+ T cells were prepared from frozen aliquots of the peripheral blood cell samples used to prepare the dendritic cells using the human CD4+ Cellect Kit (Biotex) as per the manufacturers instructions with the following modifications: the aliquots were thawed and washed such that approximately […] will be applied per Cellect column; the cells were resuspended in 4 ml DPBS and 1 ml of the Cell reagent from the Cellect Kit, the solution maintained at room temperature for 20 minutes. […] The resultant CD4+ cell solution was centrifuged, resuspended in AIMV media and the density counted. […]

HLA DQ2 molecules = test: In vitro binding assays using EBV-transformed B cell lines; design: species or system human
[1] = system: T-cells of an individual known to be hypersensitive to Bacillus lentus protease; test: T-cell response to peptides in a sample from an individual hypersensitive to Bacillus lentus protease; type: cell-based, human
Source text: Peptide E05 represents the region corresponding to 170-173 in protease from Bacillus amyloliquefaciens.
Alanine substitutions were used as substitutions for the purpose of determining the role of any specific residue within the epitope. The legend of FIG. 10 refers to the position of the peptide in which an alanine was substituted, i.e., in peptide E06 (sequence GSISYPARYANAMAV (SEQ ID NO: 210)), G to A=2, S to A=3, I to A=4, S to A=5, Y to A=6, P to A=7, R to A=8, Y to A=9, N to A=10, M to A=11 and V to A=12.

Row | Substance | T-cell epitope discovered (naïve human CD4+ T-cells) | binding to HLA DQ2 molecules (HLA DQ2 molecules) | also measured
1 | A01: peptide derived from Humicola insolens cellulase (Carezyme); legend: A02, residues 70-84 (PGGVAYSCADQTPWA) [Peptide A01] | T-cell epitopes were discovered |  | 
2 | A12: peptide derived from Thermomyces lanuginosa lipase (Lipolase); legend: B02, residues 83-100 (GDVTGFLALDNTNKLIVL) [Peptide A12] | T-cell epitopes were discovered |  | 
3 | 70-84: BPN′ peptide of region 70-84, human T cell epitope (GTVAALNNSIGVLGV; UniProt P00782 177-191, looked up, fragment) [Peptide 70-84] |  | bound | 
4 | GSISYPARYANAMAV [Peptide E05, Bacillus lentus protease peptide with region corresponding to 170-173 of B. amyloliquefaciens protease] |  |  | immunogenic response (T-cell proliferation) to peptide (naïve human CD4+ T-cells; naïve blood samples from unsensitized individuals, response relative to baseline): marked allergenic response; T-cell response to peptide [1]: highly responsive
5 | F06: peptide of Humicola insolens endogluconase, residues 37-51 (SEQ ID NO: 223) (CGWAKKAPVNQPVFS) [Peptide F06] | T-cell epitopes were discovered |  | 
6 | 109-123: BPN′ peptide of region 109-123, human T cell epitope (NGIEWAIANNMDVIN; UniProt P00782 216-230, looked up, fragment) [Peptide 109-123] |  | bound | 
